Biological target: T1, Human Factor XIIa (Homo sapiens, UniProt P00748)
T1 construct: purchased Enzyme Research Laboratories
T1 sequence (P00748 373-615 limits assumed): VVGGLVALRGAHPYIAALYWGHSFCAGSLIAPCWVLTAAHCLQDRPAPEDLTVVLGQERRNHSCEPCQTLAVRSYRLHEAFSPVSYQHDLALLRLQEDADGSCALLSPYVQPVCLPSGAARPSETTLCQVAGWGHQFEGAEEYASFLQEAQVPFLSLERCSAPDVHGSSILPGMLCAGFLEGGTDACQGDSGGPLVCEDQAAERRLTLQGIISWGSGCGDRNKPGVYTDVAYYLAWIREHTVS
T1 sequence (P00748 20-372 partner limits assumed): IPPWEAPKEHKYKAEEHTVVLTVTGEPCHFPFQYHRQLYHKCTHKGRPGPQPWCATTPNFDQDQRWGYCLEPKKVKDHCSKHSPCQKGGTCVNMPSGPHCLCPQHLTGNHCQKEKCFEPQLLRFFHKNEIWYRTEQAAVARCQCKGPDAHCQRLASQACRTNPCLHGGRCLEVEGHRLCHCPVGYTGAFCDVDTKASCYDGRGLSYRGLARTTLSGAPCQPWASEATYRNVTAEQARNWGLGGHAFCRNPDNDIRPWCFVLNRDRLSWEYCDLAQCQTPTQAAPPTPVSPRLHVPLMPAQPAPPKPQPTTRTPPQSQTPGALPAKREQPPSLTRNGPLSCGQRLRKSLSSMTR
Experiment: Determination of FXIIa inhibition (in vitro IC50 assay, fluorogenic substrate H-DPro-Phe-Arg-AFC)
Type: biochemical
Conditions: human Factor XIIa; fluorogenic substrate H-DPro-Phe-Arg-AFC at Km concentration; 5 min, 25 °C; class symbols; read-out: Human FXIIa IC50
How it was run: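 Human FXIIa incubated at 25 °C with compound and H-DPro-Phe-Arg-AFC at its Km concentration. Linear fluorescence increase monitored over 5 min, expressed as % of uninhibited activity; IC50 is concentration giving 50% inhibition.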

IC50 | Structure (SMILES)
10 to 100 nM | Cn1ccc(OCC23CN(C(=O)NC4CC5(CCC5)C4)C(CNc4cccc5c(N)nccc45)(C2)C3)cc1=O [Example 75, 1-(((1-aminoisoquinolin-5-yl)amino)methyl)-4-(((1-methyl-2-oxo-1,2-dihydropyridin-4-yl)oxy)methyl)-N-(spiro[3.3]heptan-2-yl)-2-azabicyclo[2.1.1]hexane-2-carboxamide]
10 to 100 nM | Cn1ccc(OCC23CN(C(=O)NCC4(C)COC4)C(CNc4cccc5c(N)nccc45)(C2)C3)cc1=O [Example 76, 1-(((1-aminoisoquinolin-5-yl)amino)methyl)-4-(((1-methyl-2-oxo-1,2-dihydropyridin-4-yl)oxy)methyl)-N-((3-methyloxetan-3-yl)methyl)-2-azabicyclo[2.1.1]hexane-2-carboxamide]
10 to 100 nM | Cn1ccc(OCC23CN(C(=O)NCC4CCOCC4)C(CNc4cccc5c(N)nccc45)(C2)C3)cc1=O [Example 77, 1-(((1-aminoisoquinolin-5-yl)amino)methyl)-4-(((1-methyl-2-oxo-1,2-dihydropyridin-4-yl)oxy)methyl)-N-((tetrahydro-2H-pyran-4-yl)methyl)-2-azabicyclo[2.1.1]hexane-2-carboxamide]
10 to 100 nM | Cn1ccc(OCC23CN(C(=O)NC4(C)CCOCC4)C(CNc4cccc5c(N)nccc45)(C2)C3)cc1=O [Example 78, 1-(((1-aminoisoquinolin-5-yl)amino)methyl)-4-(((1-methyl-2-oxo-1,2-dihydropyridin-4-yl)oxy)methyl)-N-(4-methyltetrahydro-2H-pyran-4-yl)-2-azabicyclo[2.1.1]hexane-2-carboxamide]
10 to 100 nM | Cn1ccc(OCC23CN(C(=O)NC4(C)COC4)C(CNc4cccc5c(N)nccc45)(C2)C3)cc1=O [Example 79, 1-(((1-aminoisoquinolin-5-yl)amino)methyl)-4-(((1-methyl-2-oxo-1,2-dihydropyridin-4-yl)oxy)methyl)-N-(3-methyloxetan-3-yl)-2-azabicyclo[2.1.1]hexane-2-carboxamide]
10 to 100 nM | Cn1ccc(OCC23CN(C(=O)NC4C(C)(C)C4(C)C)C(CNc4cccc5c(N)nccc45)(C2)C3)cc1=O [Example 80, 1-(((1-aminoisoquinolin-5-yl)amino)methyl)-4-(((1-methyl-2-oxo-1,2-dihydropyridin-4-yl)oxy)methyl)-N-(2,2,3,3-tetramethylcyclopropyl)-2-azabicyclo [2.1.1]hexane-2-carboxamide]
10 to 100 nM | Cn1ccc(OCC23CN(C(=O)NCCC4CCC4)C(CNc4cccc5c(N)nccc45)(C2)C3)cc1=O [Example 81, 1-(((1-aminoisoquinolin-5-yl)amino)methyl)-N-(2-cyclobutylethyl)-4-(((1-methyl-2-oxo-1,2-dihydropyridin-4-yl)oxy)methyl)-2-azabicyclo[2.1.1]hexane-2-carboxamide]
10 to 100 nM | Cn1ccc(OCC23CN(C(=O)NCCCOCc4ccccc4)C(CNc4cccc5c(N)nccc45)(C2)C3)cc1=O [Example 82, 1-(((1-aminoisoquinolin-5-yl)amino)methyl)-N-(3-(benzyloxy)propyl)-4-(((1-methyl-2-oxo-1,2-dihydropyridin-4-yl)oxy)methyl)-2-azabicyclo[2.1.1]hexane-2-carboxamide]
10 to 100 nM | Cc1cc(OCC23CN(C(=O)N4CCC5(CCOCC5)C4)C(CNc4cccc5c(N)nccc45)(C2)C3)cc(=O)n1C [Example 83, 4-((1-(((1-aminoisoquinolin-5-yl)amino)methyl)-2-(8-oxa-2-azaspiro[4.5]decane-2-carbonyl)-2-azabicyclo[2.1.1]hexan-4-yl)methoxy)-1,6-dimethylpyridin-2(1H)-one]
10 to 100 nM | Cc1cc(OCC23CN(C(=O)N4CCCC5(CC5)C4)C(CNc4cccc5c(N)nccc45)(C2)C3)cc(=O)n1C [Example 84, 4-((1-(((1-aminoisoquinolin-5-yl)amino)methyl)-2-(5-azaspiro[2.5]octane-5-carbonyl)-2-azabicyclo[2.1.1]hexan-4-yl)methoxy)-1,6-dimethylpyridin-2(1H)-one]
10 to 100 nM | Cc1cc(OCC23CN(C(=O)N4CCC5(CCCC5)C4)C(CNc4cccc5c(N)nccc45)(C2)C3)cc(=O)n1C [Example 85, 4-((1-(((1-aminoisoquinolin-5-yl)amino)methyl)-2-(2-azaspiro[4.4]nonane-2-carbonyl)-2-azabicyclo[2.1.1]hexan-4-yl)methoxy)-1,6-dimethylpyridin-2(1H)-one]
10 to 100 nM | COc1cccc(C2CCN(C(=O)N3CC4(COc5cc(C)n(C)c(=O)c5)CC3(CNc3cccc5c(N)nccc35)C4)C2)c1 (centres unmarked) [Example 86, 4-((1-(((1-aminoisoquinolin-5-yl)amino)methyl)-2-(3-(3-methoxyphenyl)pyrrolidine-1-carbonyl)-2-azabicyclo[2.1.1]hexan-4-yl)methoxy)-1,6-dimethylpyridin-2(1H)-one]
10 to 100 nM | Cc1cc(OCC23CN(C(=O)N4CCCC5(C4)CC5(F)F)C(CNc4cccc5c(N)nccc45)(C2)C3)cc(=O)n1C (centres unmarked) [Example 87, 4-((1-(((1-aminoisoquinolin-5-yl)amino)methyl)-2-(1,1-difluoro-5-azaspiro[2.5]octane-5-carbonyl)-2-azabicyclo[2.1.1]hexan-4-yl)methoxy)-1,6-dimethylpyridin-2(1H)-one]
10 to 100 nM | Cn1ccc(OCC23CN(C(=O)N[C@@H](c4ccccc4)C(F)(F)F)C(CNc4cccc5c(N)nccc45)(C2)C3)cc1=O [Example 88, (S)-1-(((1-aminoisoquinolin-5-yl)amino)methyl)-4-(((1-methyl-2-oxo-1,2-dihydropyridin-4-yl)oxy)methyl)-N-(2,2,2-trifluoro-1-phenylethyl)-2-azabicyclo [2.1.1]hexane-2-carboxamide]
10 to 100 nM | Cc1cc(OCC23CN(C(=O)N4CCC5(C4)CC5(F)F)C(CNc4cccc5c(N)nccc45)(C2)C3)cc(=O)n1C (centres unmarked) [Example 89, 4-((1-(((1-aminoisoquinolin-5-yl)amino)methyl)-2-(1,1-difluoro-5-azaspiro[2.4]heptane-5-carbonyl)-2-azabicyclo[2.1.1]hexan-4-yl)methoxy)-1,6-dimethylpyridin-2(1H)-one]
1 to 10 nM | Cc1cc(OCC23CN(C(=O)N(C)C4COc5ccccc54)C(CNc4cccc5c(N)nccc45)(C2)C3)cc(=O)n1C (centres unmarked) [Example 90, 1-(((1-Aminoisoquinolin-5-yl)amino)methyl)-N-(2,3-dihydrobenzofuran-3-yl)-4-(((1,6-dimethyl-2-oxo-1,2-dihydropyridin-4-yl)oxy)methyl)-N-methyl-2-azabicyclo[2.1.1]hexane-2-carboxamide]
10 to 100 nM | Cn1ccc(OCC23CN(C(=S)Nc4ccccc4)C(CNc4cccc5c(N)nccc45)(C2)C3)cc1=O [Example 91, 1-(((1-Aminoisoquinolin-5-yl)amino)methyl)-4-(((1-methyl-2-oxo-1,2-dihydropyridin-4-yl)oxy)methyl)-N-phenyl-2-azabicyclo[2.1.1]hexane-2-carbothioamide]
10 to 100 nM | Cc1cc(OCC23CN(C(=O)Nc4ccc5c(c4)OC(F)(F)O5)C(CNc4cccc5c(N)nccc45)(C2)C3)cc(=O)n1C [Example 92, 1-(((1-aminoisoquinolin-5-yl)amino)methyl)-N-(2,2-difluorobenzo[d][1,3]dioxol-5-yl)-4-(((1,6-dimethyl-2-oxo-1,2-dihydropyridin-4-yl)oxy)methyl)-2-azabicyclo[2.1.1]hexane-2-carboxamide]
10 to 100 nM | Cn1ccc(OCC23CN(c4ncc(C5CC5)cn4)C(CNc4cccc5c(N)nccc45)(C2)C3)cc1=O [Example 93, 4-((1-(((1-aminoisoquinolin-5-yl)amino)methyl)-2-(5-cyclopropylpyrimidin-2-yl)-2-azabicyclo[2.1.1]hexan-4-yl)methoxy)-1-methylpyridin-2(1H)-one]
10 to 100 nM | Cc1cc(OCC23CN(c4ccc(C5CC5)nc4)C(CNc4cccc5c(N)nccc45)(C2)C3)cc(=O)n1C [Example 94, 4-((1-(((1-aminoisoquinolin-5-yl)amino)methyl)-2-(6-cyclopropylpyridin-3-yl)-2-azabicyclo[2.1.1]hexan-4-yl)methoxy)-1,6-dimethylpyridin-2(1H)-one]
10 to 100 nM | Cc1cc(OCC23CN(c4ccc(C5CC5)nn4)C(CNc4cccc5c(N)nccc45)(C2)C3)cc(=O)n1C [Example 95, 4-((1-(((1-Aminoisoquinolin-5-yl)amino)methyl)-2-(6-cyclopropylpyridazin-3-yl)-2-azabicyclo[2.1.1]hexan-4-yl)methoxy)-1,6-dimethylpyridin-2(1H)-one]
10 to 100 nM | Cc1cc(OCC23CN(C4=NCCO4)C(CNc4cccc5c(N)nccc45)(C2)C3)cc(=O)n1C [Example 97, 4-((1-(((1-Aminoisoquinolin-5-yl)amino)methyl)-2-(4,5-dihydrooxazol-2-yl)-2-azabicyclo[2.1.1]hexan-4-yl)methoxy)-1,6-dimethylpyridin-2(1H)-one]
100 to 300 nM | Cn1ccc(OCC23CC(CNc4cccc5c(N)nccc45)(CN2C(=O)CCC2CCCCC2)C3)cc1=O [Example 102, 4-((4-(((1-Aminoisoquinolin-5-yl)amino)methyl)-2-(3-cyclohexylpropanoyl)-2-azabicyclo[2.1.1]hexan-1-yl)methoxy)-1-methylpyridin-2(1H)-one]

— patent US20260347347A1, “2-AZA-AND 2-OXABICYCLO[2.1.1]HEXANE DERIVATIVES AS FACTOR XIIA ENZYME INHIBITORS” (KALVISTA PHARMACEUTICALS LIMITED, priority 2022, published 2026)
